The test system of assay [1] is Erysiphe polygoni (synonym: Erysiphe betae). The assay can be described thus: Test on the preventive effect against cucumber powdery mildew. Type of assay: in vivo. Conditions: 216 h, test solution A 500 ppm, 5 ml per pot sprayed, cucumber cotyledon stage, 9 days after inoculation. In a few lines:
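Cucumber (Sagami Hanjiro) at cotyledon stage sprayed with 500 ppm compound (diluted from 20 wt% emulsifiable concentrate), air-dried, then inoculated with Erysiphe polygoni conidia. Kept 9 days at 20 °C in greenhouse; lesion area ratio scored in duplicate, control value = [1−(treated/untreated lesion ratio)]×100.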

Another assay relates to Botrytis cinerea. The assay can be described thus: Test on the preventive effect against cucumber gray mold (mycelium inoculation). The assay is classed as in vivo. Conditions: 48 h, test solution A 500 ppm, 5 ml per pot, cucumber cotyledon, agar block inoculation, 2 days at 20° C. As for the experimental part: Compounds of the present invention were dissolved in a solvent for emulsion (a mixture of Sorpol (registered trademark) 3005XL (manufactured by Toho Chemical Industry Co., Ltd.): N-methylpyrrolidone: Solvesso (registered trademark) 200 (manufactured by ExxonMobil Chemical) in a ratio of 1:5:2) to prepare 20 wt % emulsifiable concentrates. Then, distilled water was added to dilute the emulsifiable concentrates to the prescribed concentration (500 ppm), and the obtained solutions were used in the following the Test Examples 1 to 8. Cucumber (varieties: Sagami Hanjiro) was seeded in 90 cm^3 plastic pot, and at the cotyledon stage, 5 ml per pot of test solution A of the compounds of the present invention was applied. On the next day, the pot was transferred in a plastic container, and an agar blocks (diameter: 5 mm) containing Botrytis cinerea which was preliminarily cultivated in a PDA medium was inoculated on the cotyledon of the cucumber treated with the solution. After the inoculation, the plastic container was covered with a plastic sheet, then placed at 20° C. and humidified for 2 days. Thus the proportion of the formed lesion in the inoculated leaves were measured to calculate the control value in accordance with the same formula as in the Test Example 1. The test was carried out in duplicate.

For another assay, the system named is Sclerotinia sclerotiorum. Briefly: Test on the preventive effect against cucumber stem rot. Type of assay: in vivo. Conditions: 48 h, test solution A 500 ppm, 5 ml per pot, agar block inoculation, 2 days at 20° C. As for the experimental part: Compounds of the present invention were dissolved in a solvent for emulsion (a mixture of Sorpol (registered trademark) 3005XL (manufactured by Toho Chemical Industry Co., Ltd.): N-methylpyrrolidone: Solvesso (registered trademark) 200 (manufactured by ExxonMobil Chemical) in a ratio of 1:5:2) to prepare 20 wt % emulsifiable concentrates. Then, distilled water was added to dilute the emulsifiable concentrates to the prescribed concentration (500 ppm), and the obtained solutions were used in the following the Test Examples 1 to 8. Cucumber (varieties: Sagami Hanjiro) was seeded in 90 cm^3 plastic pot, and at the cotyledon stage, 5 ml per pot of test solution A of the compounds of the present invention was applied. After drying in air, the pot was transferred in a plastic container, and an agar blocks (diameter: 5 mm) containing Sclerotinia sclerotiorum which was preliminarily cultivated in a PDA medium was inoculated to the seed leaves of the cucumber treated with the solution. After the inoculation, the plastic container was covered with a plastic sheet, and placed at 20° C. and humidified for 2 days, thus the proportion of the formed lesion in the inoculated leaves were measured to calculate the control value in accordance with the same formula as in the Test Example 1. The test was carried out in duplicate.

The next assay concerns Asperaillus niger. Briefly: Test on the antifungal activity against Asperaillus niger. The assay is classed as cell-based. Conditions: 48 h; test solution B 100 ppm, 10 μl per well, 96 well plate, 25° C. dark, 2 days after treatment; read-out: efficacy (flora area ratio relative to non-treated well). As for the experimental part:
Compounds of the present invention were dissolved in dimethyl sulfoxide to prepare 1 wt % solutions. Then, distilled water was added to dilute the solutions to the prescribed concentration (100 ppm), and the obtained solutions were used in the following the Test Examples 9 to 12. 60 μl of a potato dextrose 1% agar medium was added to each well of a 96 well plate, and 30 μl of sterilized water containing spores of Asperaillus niger (10 spores/3 μl) was added to each well. Further, 10 μl per well of test solution B of the compounds of the present invention was added, and the plate was left at rest at 25° C. under dark conditions. 2 days after treatment, the flora area ratio (%) was determined to calculate the efficacy (%) relative to the non-treated well in accordance with the following formula. Efficacy (%)=[1−(flora area ratio in treated plot/flora area ratio in non-treated well)]×100

In assay [2] the test system is Southern root-knot nematode (Meloidogyne incoqnita). Briefly: Insecticidal test against Southern root-knot nematode (eggs, 96 well plate). Conditions: 96 h, test solution B 100 ppm, 10 μl per well, 25° C. dark, 4 days after treatment, read-out: efficacy (unhatched eggs + inactive larvae relative to non-treated). Type of assay: in vivo. How it is done: (§1) Compounds of the present invention were dissolved in dimethyl sulfoxide to prepare 1 wt % solutions. Then, distilled water was added to dilute the solutions to the prescribed concentration (100 ppm), and the obtained solutions were used in the following the Test Examples 9 to 12. 60 μl of a potato dextrose 1% agar medium was added to each well of a 96 well plate, and 30 μl of sterilized water containing eggs of Southern root-knot nematode (Meloidogyne incoqnita) (10 eggs/3 μl) was added to each well. Further, 10 μl per well of test solution B of the compounds of the present invention was added, and the plate was left at rest at 25° C. under dark conditions.

Assay [3] concerns Barber pole worm (Haemonchus contortus). The assay can be described thus: Insecticidal test against Barber pole worm (eggs, 96 well plate). Type of assay: in vivo. Conditions: 96 h, test solution B 100 ppm, 10 μl per well, 25° C. dark, 4 days after treatment, read-out: efficacy (unhatched eggs and inactive larvae relative to non-treated). How it is done: as §1, with “Barber pole worm (Haemonchus contortus)” for “Southern root-knot nematode (Meloidogyne incoqnita)”

As for `COC(c1ncc(C#CC2CC2)cc1Cl)C(C)NC(=O)c1sc(C)nc1C(F)F` (stereo not shown) [9-006a], the pest or weed control at 500 µg/mL (in assay [1]; with Botrytis cinerea; in the assay on Sclerotinia sclerotiorum) was no less than 70% each time. Further, the inhibition of growth at 100 µg/mL with Asperaillus niger was no less than 50%. Also, the pest or weed control at 100 µg/mL in assay [2] and in assay [3] was no less than 50% in each case.
With `O=C(NCC(F)(F)c1ncc(C#CC2CC2)cc1Cl)c1cccnc1C(F)F` [3-003, N-[2-[3-chloro-5-(cyclopropylethynyl)pyridin-2-yl]-2,2-difluoroethyl]-2-(difluoromethyl)nicotinamide], the pest or weed control at 500 µg/mL (in assay [1]; in the assay on Botrytis cinerea; in the assay on Sclerotinia sclerotiorum) was no less than 70% in each case. Moreover, in the assay on Asperaillus niger, the inhibition of growth at 100 µg/mL was no less than 50%. Also, the pest or weed control at 100 µg/mL in assay [2] and in assay [3] was no less than 50% throughout.
Take `Cn1cc(C(=O)NCC(C)(C)c2ncc(C#CC3CC3)cc2Cl)c(C(F)F)n1` [8-008]: the pest or weed control at 500 µg/mL (in assay [1]; with Botrytis cinerea; in the assay with Sclerotinia sclerotiorum) was no less than 70% in each case. In the assay on Asperaillus niger, the inhibition of growth at 100 µg/mL is no less than 50%. Moreover, the pest or weed control at 100 µg/mL in assay [2] and in assay [3] was no less than 50% each time.
On to `CSC(CNC(=O)c1cn(C)nc1C(F)F)c1ncc(C#CC2CC2)cc1Cl` (stereo not shown) [8-020, N-[2-[3-chloro-5-(cyclopropylethynyl)pyridin-2-yl]-2-(methylthio)ethyl]-3-difluoromethyl-1-methyl-1H-pyrazole-4-carboxamide], for which the pest or weed control at 500 µg/mL (in assay [1]; with Botrytis cinerea; in the assay on Sclerotinia sclerotiorum) was no less than 70% throughout. The inhibition of growth at 100 µg/mL in the assay on Asperaillus niger was no less than 50%. Besides, the pest or weed control at 100 µg/mL in assay [3] was no less than 50%.
In the case of `COC(=O)C(CNC(=O)c1cn(C)nc1C(F)F)c1ncc(C#CC2CC2)cc1Cl` (stereo not shown) [8-022, 2-[3-chloro-5-(cyclopropylethynyl)pyridin-2-yl]-3-(3-difluoromethyl-1-methyl-1H-pyrazole-4-carboxamide)propionic acid methyl ester], the pest or weed control at 500 µg/mL (in assay [1]; in the assay with Botrytis cinerea; in the assay on Sclerotinia sclerotiorum) was no less than 70% each time.
`O=C(NCC(c1ncc(C#CC2CC2)cc1Cl)C1CC1)c1ccccc1C(F)(F)F` (stereo not shown) [1-009]: the pest or weed control at 500 µg/mL (in assay [1]; with Sclerotinia sclerotiorum) was no less than 70% each time. Besides, the inhibition of growth at 100 µg/mL in the assay with Asperaillus niger was no less than 50%. Also, the pest or weed control at 100 µg/mL in assay [2] and in assay [3] was no less than 50% each time.
Turning to `CC(Cc1ncc(C#Cc2ccccc2)cc1Cl)NC(=O)c1cn(C)nc1C(F)F` (stereo not shown) [8-027], the pest or weed control at 500 µg/mL (in assay [1]; with Botrytis cinerea; in the assay on Sclerotinia sclerotiorum) was no less than 70% throughout.
On to `CC(NC(=O)c1ccccc1C(F)(F)F)C(OCc1ccccc1)c1ncc(C#CC2CC2)cc1Cl` (stereo not shown) [1-031, N-[2-benzyloxy-2-[3-chloro-5-(cyclopropylethynyl)pyridin-2-yl]-1-methylethyl]-2-(trifluoromethyl)benzamide], for which the pest or weed control at 500 µg/mL (in assay [1]; with Botrytis cinerea; in the assay on Sclerotinia sclerotiorum) was no less than 70% each time. The pest or weed control at 100 µg/mL in assay [2] was no less than 50%.
As to `Cn1cc(C(=O)NCC(c2ncc(C#CC3CC3)cc2Cl)C2CC2)c(C(F)F)n1` (stereo not shown) [8-009], the pest or weed control at 500 µg/mL (in assay [1]; with Botrytis cinerea; in the assay with Sclerotinia sclerotiorum) was no less than 70% each time. Further, the inhibition of growth at 100 µg/mL in the assay with Asperaillus niger was no less than 50%. In addition, in assay [3], the pest or weed control at 100 µg/mL is no less than 50%.
`Cc1nc(C(F)F)c(C(=O)NCC(C)c2ncc(C#CC3CC3)cc2Cl)s1` (stereo not shown) [9-002]: the pest or weed control at 500 µg/mL (in assay [1]; in the assay on Botrytis cinerea; in the assay with Sclerotinia sclerotiorum) was no less than 70% each time. For the same molecule, the inhibition of growth at 100 µg/mL with Asperaillus niger was no less than 50%. The pest or weed control at 100 µg/mL in assay [3] was no less than 50%.
Consider `Cn1cc(C(=O)NCC2(c3ncc(C#CC4CC4)cc3Cl)CC2)c(C(F)F)n1` [8-018, N-[[1-[3-chloro-5-(cyclopropylethynyl)pyridin-2-yl]cyclopropyl]methyl]-3-difluoromethyl-1-methyl-1H-pyrazole-4-carboxamide], for which the pest or weed control at 500 µg/mL (in assay [1]; with Botrytis cinerea; in the assay on Sclerotinia sclerotiorum) was no less than 70% each time. The pest or weed control at 100 µg/mL in assay [2] and in assay [3] was no less than 50% in each case.
Take `Cn1cc(C(=O)NCCc2ncc(C#CC(C)(C)C)cc2Cl)c(C(F)F)n1` [8-002]: the pest or weed control at 500 µg/mL (in assay [1]; with Botrytis cinerea; in the assay with Sclerotinia sclerotiorum) was no less than 70% each time. Also, in the assay on Asperaillus niger, the inhibition of growth at 100 µg/mL is no less than 50%. In addition, in assay [3], the pest or weed control at 100 µg/mL is no less than 50%.
As to `COC(c1ncc(C#CC2CC2)cc1Cl)C(C)NC(=O)c1nccnc1C(F)(F)F` (stereo not shown) [4-004], the pest or weed control at 500 µg/mL (in assay [1]; in the assay with Botrytis cinerea; with Sclerotinia sclerotiorum) was no less than 70% throughout. Also, the pest or weed control at 100 µg/mL in assay [3] was no less than 50%.
Regarding `CC#Cc1cnc(CCNC(=O)c2ccccc2C(F)(F)F)c(Cl)c1` [1-001, N-[2-[3-chloro-5-(1-propynyl)pyridin-2-yl]ethyl]-2-(trifluoromethyl)benzamide], the pest or weed control at 500 µg/mL (in assay [1]; in the assay on Botrytis cinerea; in the assay with Sclerotinia sclerotiorum) was no less than 70% throughout. For the same molecule, the pest or weed control at 100 µg/mL in assay [2] and in assay [3] was no less than 50% each time.
Consider `CC(Cc1ncc(C#CC2CC2)cc1Cl)NC(=O)c1cn(C)nc1C(F)F` (stereo not shown) [8-024, N-[2-[3-chloro-5-(cyclopropylethynyl)pyridin-2-yl]-1-methylethyl]-3-difluoromethyl-1-methyl-1H-pyrazole-4-carboxamide], for which the pest or weed control at 500 µg/mL (in assay [1]; in the assay with Botrytis cinerea; in the assay with Sclerotinia sclerotiorum) was no less than 70% in each case.

The values above are taken from US10029986B2, “Alkynyl pyridine-substituted amide compound and pesticide” (NISSAN CHEMICAL INDUSTRIES, LTD., priority 2014, dated 2018).
